According to article PMC3288053 (PLoS ONE, 2012):

What was measured:
[1] = molecular target: T1, SRC1_613–773 (Homo sapiens, UniProt Q15788); test: SPR (Biacore) binding assay, control; conditions: SPR control experiment
T1 construct: The plasmid pET15b-SRC1_613–773 is constructed with NdeI-BamHI sites; His-tag (N); made in house; host or cells: E. coli BL21 (DE3)
Experimental: Binding affinities of Rut towards proteins are analyzed using SPR technology based Biacore 3000 instrument (GE Healthcare). In the assay, proteins are immobilized to CM5 chips using a standard amine-coupling procedure (Biacore manual). The proteins to be covalently bound to the chips are diluted in 10 mM sodium acetate buffer (pH4.5) to a final concentration of 0.10 mg/ml. Before experiments, baseline is equilibrated with a continuous flow of running buffer (10 mM HEPES, 150 mM NaCl, 3 mM EDTA, and 0.005% (v/v) surfactant P20, pH7.4) for 2 hours. Subsequently, Rut with a gradient of concentrations is injected to the channels at a flow rate of 20 µL/min for 60 seconds, followed by disassociation for 120 seconds. The 1∶1 Langmuir binding fitting model in BIAevaluation software version 3.1 (Biacore) is used to determine the equilibrium dissociation constants (K Ds) of compounds. For SRC1 recruitment assay, purified SRC1_613–773 is immobilized to a CM5 chip. Different concentrations of PPARγ-LBD or RXRα-LBD are injected to the channel at a flow rate of 20 µL/min for 60 s, followed by disassociation for 120 s. To further detect the effects of Rut on PPARγ-LBD/SRC1 or RXRα-LBD/SRC1 interactions, 1 µM PPARγ-LBD or RXRα-LBD is incubated with Rut (16.8–100 µM) for 1 hour, and then injected onto the chip.

[2] = test system: GLUT4 promoter; test: GLUT4 promoter-luciferase reporter assay in 3T3-L1 adipocytes; type: cell-based; conditions: pre-treated 24 hours
Experimental: (a) Chemical structure of (+)-Rutamarin. […] Green fluorescence represents the total GLUT4, and red fluorescence depicts the translocated GLUT4 to cell membrane. (d) Insulin (170 nM)-induced GLUT4 translocation of CHO-K1/GLUT4 cells treated with compound-2 (C2, 10 µM), pervanadate (Pervan, 100 µM) and Rut (5, 10, 20 µM) for 5 minutes. (e) Immunofluorescence with antibody against GLUT4 (green), DAPI (blue) in 3T3-L1 adipocytes. GLUT4 translocation is detected either in the insulin (17 nM) stimulated 3T3-L1 adipocytes for 5 minutes, or pre-treated with Rut (20 µM) for 8 hours and then stimulated with insulin (17 nM) for 5 minutes. (f) Rut potently stimulates GLUT4 promoter activity in 3T3-L1 adipocytes (20 µM, Rut was pre-treated in the cells for 24 hours. Reporter gene is GLUT4 promoter-luciferase plasmid together with Renilla luciferase expression vector as a control). (g) H^3-glucose uptake assay in fully differentiated 3T3-L1 adipocytes treated with C2 (10 µM) and different doses of Rut (5–25 µM). Treatment of Rut for 30 minutes improves the insulin (17 nM)-stimulated glucose uptake. (h) GLUT4 expression is determined by western blotting with an antibody against GLUT4 in 3T3-L1 adipocytes treated with Rut (20 µM) for 48 hours. Data are presented as means ± s.e.m (*P<0.05, **P<0.01) from three independent experiments.

[3] = molecular target: T2, FXR: RXRα (Homo sapiens, UniProt P19793+Q96RI1); test: Transient transfection luciferase assay in HEK293 cells (FXRE); type: cell-based; conditions: HEK293, 24 h
T2 construct: expressed in transfected cells; host or cells: HEK293
T2 sequence (Q96RI1 whole entry): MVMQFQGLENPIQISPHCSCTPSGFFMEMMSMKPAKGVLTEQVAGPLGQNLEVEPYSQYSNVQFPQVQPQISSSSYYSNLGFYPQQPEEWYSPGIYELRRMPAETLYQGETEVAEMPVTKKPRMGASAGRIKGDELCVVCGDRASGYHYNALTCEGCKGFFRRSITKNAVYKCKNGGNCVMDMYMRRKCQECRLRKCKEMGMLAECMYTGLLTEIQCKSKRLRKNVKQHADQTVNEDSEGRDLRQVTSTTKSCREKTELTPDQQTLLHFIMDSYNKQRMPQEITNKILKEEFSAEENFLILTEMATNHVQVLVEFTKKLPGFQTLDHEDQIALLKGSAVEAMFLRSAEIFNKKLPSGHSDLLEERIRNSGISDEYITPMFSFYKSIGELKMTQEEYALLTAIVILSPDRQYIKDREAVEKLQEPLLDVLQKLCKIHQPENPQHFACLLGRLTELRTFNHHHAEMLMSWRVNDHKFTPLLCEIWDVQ
T2 sequence (P19793 whole entry): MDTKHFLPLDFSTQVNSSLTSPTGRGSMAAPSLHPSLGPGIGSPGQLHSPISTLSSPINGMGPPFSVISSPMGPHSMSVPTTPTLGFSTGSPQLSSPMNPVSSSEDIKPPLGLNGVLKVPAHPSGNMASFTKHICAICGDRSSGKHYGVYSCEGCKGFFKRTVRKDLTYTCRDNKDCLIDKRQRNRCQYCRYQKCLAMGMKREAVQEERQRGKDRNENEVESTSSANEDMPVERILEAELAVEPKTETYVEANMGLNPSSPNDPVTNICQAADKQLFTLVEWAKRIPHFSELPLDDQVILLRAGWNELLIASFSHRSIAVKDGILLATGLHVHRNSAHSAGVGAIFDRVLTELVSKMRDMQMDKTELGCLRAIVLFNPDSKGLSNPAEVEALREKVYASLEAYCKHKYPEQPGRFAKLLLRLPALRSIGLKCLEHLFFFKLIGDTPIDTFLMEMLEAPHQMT
Experimental: (§1) HEK293 cells are transiently transfected by Lipo2000 respectively with RXRα, PPARγ, FXR, and LXRα plasmids plus pGL3-RXRE luciferase vector and renilla luciferase vector for 5 hours. Cells are then incubated with indicated concentrations of compounds for another 24 h and finally lysed. Luciferase activities are measured using Dual Luciferase Assay System kit. Rut dose-dependently activates (a) RXRα:RXRα and (b) PPARγ:RXRα activities. Rut has no effects on (c) FXR: RXRα and (d) LXRα:RXRα activities. Data are presented as means ± s.e.m (*P<0.05, **P<0.01) from three independent experiments.
(§2) HEK293 cells are transfected with luciferase reporter plus Renilla luciferase vector and other plasmids if needed for 5 hours, and cells are then incubated with indicated concentrations of compounds for another 24 h. Finally cells are lysed and luciferase activities are measured using Dual Luciferase Assay System kit. The results are presented as the fold activation relative to untreated cells after normalization with Renilla luciferase values. Each experiment is repeated at least twice, with each sample analyzed in triplicates.

[4] = molecular target: T3, LXRα:RXRα (Homo sapiens, UniProt P19793+Q13133); test: Transient transfection luciferase assay in HEK293 cells (LXRE); type: cell-based; conditions: HEK293, 24 h
T3 construct: expressed in transfected cells; host or cells: HEK293
T3 sequence (Q13133 whole entry): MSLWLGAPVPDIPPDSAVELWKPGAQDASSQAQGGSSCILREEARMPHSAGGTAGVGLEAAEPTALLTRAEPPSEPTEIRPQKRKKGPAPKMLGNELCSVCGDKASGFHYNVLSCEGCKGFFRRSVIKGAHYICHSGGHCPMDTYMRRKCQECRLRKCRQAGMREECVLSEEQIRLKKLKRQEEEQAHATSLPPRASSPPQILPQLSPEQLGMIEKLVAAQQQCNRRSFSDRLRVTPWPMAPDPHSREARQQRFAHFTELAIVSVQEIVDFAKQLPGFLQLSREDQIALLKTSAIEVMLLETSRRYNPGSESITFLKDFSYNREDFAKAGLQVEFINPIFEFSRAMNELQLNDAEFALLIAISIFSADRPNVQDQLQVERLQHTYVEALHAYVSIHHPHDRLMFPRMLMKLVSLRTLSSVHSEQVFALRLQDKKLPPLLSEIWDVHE
T3 sequence (P19793 whole entry): as the sequence (P19793 whole entry) above
Experimental: as §1, §2

[5] = test system: 3T3-L1 adipocytes; test: 2-Deoxyglucose uptake in 3T3-L1 adipocytes; type: cell-based
Experimental: 3T3-L1 adipocytes are fully differentiated (the 10th day after MDI stimulation) and seeded into 24-well plate. After incubation with compounds in serum-free medium containing 0.5% BSA for 8 hours, medium is changed to Krebs buffer containing […] insulin and incubated for 30 minutes. In the last 5 minutes, cells are incubated with 2-[^3H]-deoxy-D-glucose. The glucose uptake is stopped by ice-cold PBS, and the cells are then lysed with 0.1% Triton. Finally the radioactivity is calculated by a scintillation counter. Cytochalasin B is used to measure nonspecific uptake, and the value is subtracted from all the data. Radioactivity is normalized by total protein concentration that is measured by BCA kit.

[6] = test system: GLUT4 in 3T3-L1 adipocytes; test: Western blot of GLUT4 protein level; type: cell-based; conditions: Rut 20 µM
Experimental: Insulin sensitizing effects of Rut are investigated in CHO-K1 and 3T3-L1 adipocytes. After incubation with compounds in serum-free medium for indicated time, cells are stimulated with insulin (170 nM for CHO-K1 cells and 17 nM for 3T3-L1 adipocytes) for 5 min, and the stimulation is stopped by ice-cold PBS. The effect of Rut on insulin signaling is also investigated in CHO-K1 cells. In the assay, cells are stimulated with Rut (20 µM, 8 h) or insulin (170 nM, 5 min), and then lysed on ice. GLUT4 protein level is studied in the differentiated 3T3-L1 adipocytes (the 10th day after MDI stimulation). […] The proteins are resolved by SDS-polyacrylamide gel electrophoresis and electro-transferred to polyvinylidene difluoride membranes. The membrane is blocked by 5% skimmed milk and incubated with antibodies. Proteins are visualized by the ECL detecting system.

T1 sequence (Q15788 613-773): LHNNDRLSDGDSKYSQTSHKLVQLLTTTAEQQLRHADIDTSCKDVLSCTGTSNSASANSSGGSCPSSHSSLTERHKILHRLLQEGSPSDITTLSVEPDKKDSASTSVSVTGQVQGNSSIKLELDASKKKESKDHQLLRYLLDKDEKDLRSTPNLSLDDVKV

For `C=CC(C)(C)c1cc2cc3c(cc2oc1=O)O[C@H](C(C)(C)OC(C)=O)C3` [(+)-Rutamarin], the “binding to SRC1” value [1] was “does not bind”, the GLUT4 promoter activity [2] was “dose-dependently induce” and the “activity of FXR-response element (FXRE)” value [3] was “without influencing”. The “activity of LXR-response element (LXRE)” value [4] was “without influencing”, the “glucose uptake without insulin stimulation” value ([5]; Rut 20 µM, 8 hours) was “improves glucose uptake” and the insulin-induced glucose uptake ([5]; insulin 17 nM, Rut 5–25 µM, C2 10 µM) was “dose-dependently enhances”. For the same compound, the GLUT4 protein level ([6]; 8th hour) was “no obvious increment” and the GLUT4 protein level ([6]; 48 hours) was “potently increases”.
